Measured values taken from ChEMBL document CHEMBL1156829 (Proc Natl Acad Sci U S A, 2008).
pEC50: −log10 of the molar value.

How the values were obtained:
Plasmodium falciparum [1] = experiment: NOVARTIS: Inhibition of Plasmodium falciparum 3D7 (drug-susceptible) proliferation in erythrocyte-based infection assay; assay type: functional, organism-based; conditions: Plasmodium falciparum, 3D7
Plasmodium falciparum [2] = experiment: NOVARTIS: Inhibition of Plasmodium falciparum W2 (drug-resistant) proliferation in erythrocyte-based infection assay; assay type: functional, organism-based; conditions: Plasmodium falciparum, W2; read-out: EC50
[3] = NOVARTIS: Cytotoxicity against human hepatocellular carcinoma cell line (Huh7); assay type: toxicity, cell-based, Huh-7; conditions: Huh7 cells (hepatocellular carcinoma cell line)

Row | SMILES | pEC50 (Plasmodium falciparum [1]) | pEC50 (Plasmodium falciparum [2]) | CC50 [3] [nM]
1 | C=CC1(C)CC23CC(C(OC(=O)c4ccccc4)c4ccnc5ccccc45)N2CCC13 (stereo not given) | 6.76 | 6.03 | 29200
2 | O=C(CN1CCCC1C(c1ccccc1)c1ccccc1)N1CCSCC1 (stereo not given) | < 5.90 | < 5.97 | 12000
3 | CC1Cc2ccccc2N1C(=O)Cn1c(=O)oc2ccccc21 (stereo not given) | < 6.04 | < 5.90 | > 10000
4 | CCCCCC1CCCc2c1[nH]c1cc(Cl)ccc1c2=O (stereo not given) | 6.32 | 6.52 | > 100000
5 | COc1ccc(C=CC(=O)NC(=O)c2ccccc2O)cc1OC | 5.89 | 5.86 | > 100000
6 | Oc1ccc(-c2ccc3c(c2)OCO3)cc1CNCC1(N2CCCCC2)CCCCC1 | 6.54 | 7.45 | > 100000
7 | O=C(CSc1nc(NCc2ccccc2)c2ccccc2n1)NCc1ccco1 | 6.59 | 6.42 | > 10000
8 | O=c1c2c3c(sc2ncn1Cc1cccc(Cl)c1)CC(N1CCCCC1)CC3 (stereo not given) | 5.53 | 5.58 | 27800
9 | CC(C)N1CCC(N2CCN(Cc3ccc4c(c3)Cc3ccccc3-4)CC2CCO)CC1 (stereo not given) | 5.81 | 6.04 | 20500
10 | CC(=O)Nc1ccccc1-c1nnn(CC(N)=O)n1 | < 4.98 | < 4.98 | > 100000
11 | COc1cccc(OC)c1C(=O)Oc1cccc2ccc(C)nc12 | < 5.90 | 6.10 | > 10000
12 | COc1cc(CN2CCN(c3ccccn3)CC2)cc(I)c1O | < 5.00 | 5.31 | > 100000
13 | N=c1n(CCN2CCCC2)c2ccccc2n1CC(O)c1ccc(Cl)c(Cl)c1 (stereo not given) | 7.08 | 6.59 | 10900
14 | Cc1cc(N2CCN(c3ccccn3)CC2)n2c(nc3ccccc32)c1C#N | 5.85 | 5.56 | > 100000
15 | CCN(CC)S(=O)(=O)c1ccc(-c2csc(=Nc3cccc4ccccc34)n2C)cc1 | 7.22 | < 5.91 | > 10000
16 | O=C(Nc1ccc(F)cc1)N1CCN(c2ccc3nnc(-c4ccccc4)n3n2)CC1 | < 4.90 | 5.48 | > 100000
17 | CCC(=O)NC(c1ccccc1Cl)c1cc(Cl)c2cccnc2c1O (stereo not given) | 6.64 | 7.13 | 35400
18 | Cc1c2c(n3c(nc4ccccc43)c1C#N)N(CCN(C)C)CC2 | 6.38 | 6.20 | > 100000

Row | SMILES | pEC50 (Plasmodium falciparum [1]) | pEC50 (Plasmodium falciparum [2]) | CC50 [3] [nM]
19 | O=C(Cn1c(=O)oc2cc(S(=O)(=O)N3CCCC3)ccc21)Nc1cccnc1 | < 6.02 | 6.77 | > 10000
20 | CCCCOc1ccc(C(=O)NCCOc2cccc(OC)c2)cc1 | 6.54 | < 4.90 | > 100000
21 | CCOc1ccc(NC(=O)N(CCC(C)C)C(C)c2nc3ccccc3c(=O)n2-c2cccc(Cl)c2C)cc1 (stereo not given) | 5.92 | 5.94 | > 10000
22 | O=C(COC(c1ccccc1)c1c(Cl)cncc1Cl)N1CCNCC1 (stereo not given) | 6.23 | 5.59 | 48200
23 | CCOC(=O)c1ccc(NCc2c(C)[nH]c(C(=O)OCC)c2C)cc1 | 6.62 | 7.01 | > 100000
24 | CCN1CCN(c2cc(C)c3cc(NC(=O)/C=C/c4ccc(OC)cc4)ccc3n2)CC1 | 6.04 | 6.12 | > 10400
25 | COC(=O)C1=C(C)NC2=C(C(=O)CC(c3ccc(OC)c(OC)c3)C2)C1c1ccc(F)cc1 (stereo not given) | 7.55 | 7.85 | > 100000
26 | O=c1nc(C=Cc2ccc(Cl)cc2)oc2ccccc12 | 5.96 | 5.97 | > 100000
27 | O=[N+]([O-])c1ccc(C=NN2CCN(Cc3ccccc3Cl)CC2)cc1 | < 5.14 | < 5.80 | > 100000
28 | CCCCN(CCCC)CCCNc1ncnc2c1[nH]c1ccc(Cl)cc12 | 6.64 | 6.79 | 61800
29 | CCN(CC)CCCNc1ccnc2cc3ccccc3cc12 | 7.47 | 7.29 | 26200
30 | COC(=O)C1=C(C)Nc2[nH]c(=S)[nH]c(=O)c2C1c1ccccc1F (stereo not given) | 5.89 | < 5.78 | > 10000
31 | COC(=O)c1c(-c2c(F)cccc2Cl)noc1/C=C/Nc1ccc(OC)cc1 | 6.37 | < 5.90 | > 10000
32 | CC1(C)N=C(N)N=C(N)N1c1ccc(Oc2ccc(Cl)cc2)c(Cl)c1 | 7.24 | 6.20 | 35100
33 | COc1cc(NC(C)CCCN(Cc2ccccc2OC)C(=O)Nc2cccc(F)c2)c2ncccc2c1 (stereo not given) | < 5.78 | 6.08 | > 10000
34 | CC(=O)Nc1cc([N+](=O)[O-])ccc1N1CCOCC1 | < 5.81 | 5.82 | > 10000
35 | COC(=O)CNC(=O)c1sc2ncn(CC(=O)Nc3ccccc3OC)c(=O)c2c1C | < 6.02 | < 6.13 | > 10000
